# Reference: US10087229B2, “Peptide compound” (TAKEDA PHARMACEUTICAL COMPANY LIMITED, priority 2013, dated 2018)
# Square brackets hold non-standard residues; d marks the D form. Peptide text beside a SMILES is read from it. * marks the point of attachment. Tyr(Nα-amidino) = N=C(N)N[C@@H](Cc1ccc(O)cc1)C(=O)*; αMeF = C[C@](N)(Cc1ccccc1)C(=O)O; Cha = N[C@@H](CC1CCCCC1)C(=O)O; Aib = CC(C)(N)C(=O)O
# Test system: male C57BL/6J mouse
# Test: 2-days continuous subcutaneous administration test (feeding suppressive activity)
# Type: in vivo
# Conditions: 10 nmol/kg/day, subcutaneous Alzet pump, 2-days cumulative food consumption, control (solvent alone) = 0%
# Procedure: 2-Days Continuous Subcutaneous Administration Test
# The feeding suppressive activity of a test compound was examined by the method described below.
# The test compound was dissolved in a solvent (50% DMSO) so that sustained release would occur at 10 nmol/kg/day, and the solution was filled in the Alzet Pump (DURECT Corporation, model: 1003D). The pump thus filled with the solution to be administered was immersed in physiological saline for priming, and then used. The pump was embedded by the following method. Each male C57BL/6J mouse at 8-9 weeks of age (20-26° C., allowed to take food and water ad libitum; 12-hour bright-12-hour dark cycle) was anesthetized; the skin in the upper back thereof was incised, and the above-mentioned pump was embedded subcutaneously; the incision was sutured. After weighing, this mouse was returned to the rearing cage (reared alone), and given previously weighed food; food consumption as of 2 days after the start of administration was measured. The food consumption was calculated by subtracting the amount of remaining food from the weight of the food given on the day of the start of administration. When the food consumption of a control group receiving administration of the solvent alone was regarded as a suppression rate of 0%, the feeding suppressive activity of each test compound was evaluated on the basis of 2-days cumulative food consumption after the start of administration. The food intake suppression rate (%) of the test compound was defined as (Food consumption of the control group−Food consumption of the test compound-administered group)/Food consumption of the control group×100.
row,SMILES,Food intake suppression (%)
1,CC[C@H](C)[C@H](NC(=O)C(C)(C)NC(=O)[C@H](Cc1ccc(O)cc1)NC(=O)[C@H](CC(=O)O)NC(=O)[C@H](CO)NC(=O)[C@@H](NC(=O)[C@](C)(Cc1ccccc1)NC(=O)[C@@H](NC(=O)CNC(=O)[C@H](CCC(=O)O)NC(=O)C(C)(C)NC(=O)[C@@H](N)Cc1ccc(O)cc1)[C@@H](C)O)[C@@H](C)O)C(=O)NC(C)(C)C(=O)N[C@@H](CC(C)C)C(=O)N[C@@H](CC(=O)O)C(=O)N[C@@H](CCCCN)C(=O)N[C@@H](CCC(N)=O)C(=O)N[C@@H](C)C(=O)N[C@@H](CCC(N)=O)C(=O)N[C@@H](CO)C(=O)N[C@@H](CCC(=O)O)C(=O)N[C@@H](Cc1ccccc1)C(=O)N[C@H](C(=O)N[C@@H](CCCCN)C(=O)N[C@@H](Cc1c[nH]c2ccccc12)C(=O)N[C@@H](CC(C)C)C(=O)N[C@@H](CC(C)C)C(=O)N[C@@H](CCCCN)C(=O)NCC(=O)NCC(=O)N1CCC[C@H]1C(=O)N[C@@H](CO)C(=O)N[C@@H](CO)C(=O)NCC(=O)N[C@@H](C)C(=O)N1CCC[C@H]1C(=O)N1CCC[C@H]1C(=O)N1CCC[C@H]1C(=O)N[C@@H](CO)C(=O)N[C@@H](CCCCN)C(N)=O)C(C)C [Example 4] (H-Y[Aib]EGT[αMeF]TSDY[Aib]I[Aib]LDKQAQSEFVKWLLKGGPSSGAPPPSK-NH2),57.01
2,CC[C@H](C)[C@H](NC(=O)C(C)(C)NC(=O)[C@H](Cc1ccc(O)cc1)NC(=O)[C@H](CC(=O)O)NC(=O)[C@H](CO)NC(=O)[C@@H](NC(=O)[C@](C)(Cc1ccccc1)NC(=O)[C@@H](NC(=O)CNC(=O)[C@H](CCC(=O)O)NC(=O)C(C)(C)NC(=O)[C@@H](N)Cc1ccc(O)cc1)[C@@H](C)O)[C@@H](C)O)C(=O)NC(C)(C)C(=O)N[C@@H](CC(C)C)C(=O)N[C@@H](CC(=O)O)C(=O)N[C@@H](CCCCN)C(=O)N[C@@H](CCC(N)=O)C(=O)N[C@@H](C)C(=O)N[C@@H](CCC(N)=O)C(=O)N[C@@H](C)C(=O)N[C@@H](CCC(=O)O)C(=O)N[C@@H](Cc1ccccc1)C(=O)N[C@H](C(=O)N[C@@H](CCCCN)C(=O)N[C@@H](Cc1c[nH]c2ccccc12)C(=O)N[C@@H](CC(C)C)C(=O)N[C@@H](CC(C)C)C(=O)N[C@@H](CCCCN)C(=O)NCC(=O)NCC(=O)N1CCC[C@H]1C(=O)N[C@@H](CO)C(=O)N[C@@H](CO)C(=O)NCC(=O)N[C@@H](C)C(=O)N1CCC[C@H]1C(=O)N1CCC[C@H]1C(=O)N1CCC[C@H]1C(=O)N[C@@H](CO)C(N)=O)C(C)C [Example 6] (H-Y[Aib]EGT[αMeF]TSDY[Aib]I[Aib]LDKQAQAEFVKWLLKGGPSSGAPPPS-NH2),65.20
3,CC[C@H](C)[C@H](NC(=O)C(C)(C)NC(=O)[C@H](Cc1ccc(O)cc1)NC(=O)[C@H](CC(=O)O)NC(=O)[C@H](CO)NC(=O)[C@@H](NC(=O)[C@](C)(Cc1ccccc1)NC(=O)[C@@H](NC(=O)CNC(=O)[C@H](CCC(=O)O)NC(=O)C(C)(C)NC(=O)[C@H](Cc1ccc(O)cc1)NC(=N)N)[C@@H](C)O)[C@@H](C)O)C(=O)NC(C)(C)C(=O)N[C@@H](CC(C)C)C(=O)N[C@@H](CC(=O)O)C(=O)N[C@@H](CCCCN)C(=O)N[C@@H](CCC(N)=O)C(=O)N[C@@H](C)C(=O)N[C@@H](CCC(N)=O)C(=O)N[C@@H](C)C(=O)N[C@@H](CCC(=O)O)C(=O)N[C@@H](Cc1ccccc1)C(=O)N[C@H](C(=O)N[C@@H](CCCCN)C(=O)N[C@@H](Cc1c[nH]c2ccccc12)C(=O)N[C@@H](CC(C)C)C(=O)N[C@@H](CC(C)C)C(=O)N[C@@H](CCCCN)C(=O)NCC(=O)NCC(=O)N1CCC[C@H]1C(=O)N[C@@H](CO)C(=O)N[C@@H](CO)C(=O)NCC(=O)N[C@@H](C)C(=O)N1CCC[C@H]1C(=O)N1CCC[C@H]1C(=O)N1CCC[C@H]1C(=O)N[C@@H](CO)C(=O)N[C@@H](CCCCN)C(N)=O)C(C)C [Example 22] ({Tyr(Nα-amidino)}-[Aib]EGT[αMeF]TSDY[Aib]I[Aib]LDKQAQAEFVKWLLKGGPSSGAPPPSK-NH2),35.51
4,CC(C)C[C@H](NC(=O)[C@H](CC(C)C)NC(=O)[C@H](Cc1c[nH]c2ccccc12)NC(=O)[C@H](CCCCN)NC(=O)[C@@H](NC(=O)[C@H](Cc1ccccc1)NC(=O)[C@H](CCC(=O)O)NC(=O)[C@H](C)NC(=O)[C@H](CCC(N)=O)NC(=O)[C@H](C)NC(=O)[C@H](CCC(N)=O)NC(=O)[C@H](CCCCN)NC(=O)[C@H](CC(=O)O)NC(=O)[C@H](CC(C)C)NC(=O)[C@](C)(Cc1ccccc1)NC(=O)[C@H](CCCCN)NC(=O)C(C)(C)NC(=O)[C@H](Cc1ccc(O)cc1)NC(=O)[C@H](CC(=O)O)NC(=O)[C@H](CO)NC(=O)[C@@H](NC(=O)[C@](C)(Cc1ccccc1)NC(=O)[C@@H](NC(=O)CNC(=O)[C@H](CCC(=O)O)NC(=O)C(C)(C)NC(=O)[C@@H](N)Cc1ccc(O)cc1)[C@@H](C)O)[C@@H](C)O)C(C)C)C(=O)N[C@@H](CCCCN)C(=O)NCC(=O)NCC(=O)N1CCC[C@H]1C(=O)N[C@@H](CO)C(=O)N[C@@H](CO)C(=O)NCC(=O)N[C@@H](C)C(=O)N1CCC[C@H]1C(=O)N1CCC[C@H]1C(=O)N1CCC[C@H]1C(=O)N[C@@H](CO)C(=O)N[C@@H](CCCCN)C(N)=O [Example 15] (H-Y[Aib]EGT[αMeF]TSDY[Aib]K[αMeF]LDKQAQAEFVKWLLKGGPSSGAPPPSK-NH2),58.80
5,CC(C)C[C@H](NC(=O)[C@H](CC(C)C)NC(=O)[C@H](Cc1c[nH]c2ccccc12)NC(=O)[C@H](CCCCN)NC(=O)[C@@H](NC(=O)[C@H](Cc1ccccc1)NC(=O)[C@H](CCC(=O)O)NC(=O)[C@H](C)NC(=O)[C@H](CCC(N)=O)NC(=O)[C@H](C)NC(=O)[C@H](CCC(N)=O)NC(=O)[C@H](CCCCN)NC(=O)[C@H](CC(=O)O)NC(=O)[C@H](CC(C)C)NC(=O)C(C)(C)NC(=O)[C@H](Cc1ccccc1)NC(=O)C(C)(C)NC(=O)[C@H](Cc1ccc(O)cc1)NC(=O)[C@H](CC(=O)O)NC(=O)[C@H](CO)NC(=O)[C@@H](NC(=O)[C@](C)(Cc1ccccc1)NC(=O)[C@@H](NC(=O)CNC(=O)[C@H](CCC(=O)O)NC(=O)C(C)(C)NC(=O)[C@@H](N)Cc1ccc(O)cc1)[C@@H](C)O)[C@@H](C)O)C(C)C)C(=O)N[C@@H](CCCCN)C(=O)NCC(=O)NCC(=O)N1CCC[C@H]1C(=O)N[C@@H](CO)C(=O)N[C@@H](CO)C(=O)NCC(=O)N[C@@H](C)C(=O)N1CCC[C@H]1C(=O)N1CCC[C@H]1C(=O)N1CCC[C@H]1C(=O)N[C@@H](CO)C(=O)N[C@@H](CCCCN)C(N)=O [Example 11] (H-Y[Aib]EGT[αMeF]TSDY[Aib]F[Aib]LDKQAQAEFVKWLLKGGPSSGAPPPSK-NH2),49.99
6,CC(C)C[C@H](NC(=O)[C@H](CC(C)C)NC(=O)[C@H](Cc1c[nH]c2ccccc12)NC(=O)[C@H](CCCCN)NC(=O)[C@@H](NC(=O)[C@H](Cc1ccccc1)NC(=O)[C@H](CCC(=O)O)NC(=O)[C@H](C)NC(=O)[C@H](CCC(N)=O)NC(=O)[C@H](C)NC(=O)[C@H](CCC(N)=O)NC(=O)[C@H](CCCCN)NC(=O)[C@H](CC(=O)O)NC(=O)[C@H](CC(C)C)NC(=O)[C@H](CC1CCCCC1)NC(=O)[C@H](CCCCN)NC(=O)C(C)(C)NC(=O)[C@H](Cc1ccc(O)cc1)NC(=O)[C@H](CC(=O)O)NC(=O)[C@H](CO)NC(=O)[C@@H](NC(=O)[C@](C)(Cc1ccccc1)NC(=O)[C@@H](NC(=O)CNC(=O)[C@H](CCC(=O)O)NC(=O)C(C)(C)NC(=O)[C@@H](N)Cc1ccc(O)cc1)[C@@H](C)O)[C@@H](C)O)C(C)C)C(=O)N[C@@H](CCCCN)C(=O)NCC(=O)NCC(=O)N1CCC[C@H]1C(=O)N[C@@H](CO)C(=O)N[C@@H](CO)C(=O)NCC(=O)N[C@@H](C)C(=O)N1CCC[C@H]1C(=O)N1CCC[C@H]1C(=O)N1CCC[C@H]1C(=O)N[C@@H](CO)C(=O)N[C@@H](CCCCN)C(N)=O [Example 16] (H-Y[Aib]EGT[αMeF]TSDY[Aib]K[Cha]LDKQAQAEFVKWLLKGGPSSGAPPPSK-NH2),54.24
7,CC[C@H](C)[C@H](NC(=O)[C@H](C)NC(=O)[C@H](Cc1ccc(O)cc1)NC(=O)[C@H](CC(=O)O)NC(=O)[C@H](CO)NC(=O)[C@@H](NC(=O)[C@](C)(Cc1ccccc1)NC(=O)[C@@H](NC(=O)CNC(=O)[C@H](CCC(=O)O)NC(=O)C(C)(C)NC(=O)[C@@H](N)Cc1ccc(O)cc1)[C@@H](C)O)[C@@H](C)O)C(=O)NC(C)(C)C(=O)N[C@@H](CC(C)C)C(=O)N[C@@H](CC(=O)O)C(=O)N[C@@H](CCCCN)C(=O)N[C@@H](CCC(N)=O)C(=O)N[C@@H](C)C(=O)N[C@@H](CCC(N)=O)C(=O)N[C@@H](CO)C(=O)N[C@@H](CCC(=O)O)C(=O)N[C@@H](Cc1ccccc1)C(=O)N[C@H](C(=O)N[C@@H](CCCCN)C(=O)N[C@@H](Cc1c[nH]c2ccccc12)C(=O)N[C@@H](CC(C)C)C(=O)N[C@@H](CC(C)C)C(=O)N[C@@H](CCCCN)C(=O)NCC(=O)NCC(=O)N1CCC[C@H]1C(=O)N[C@@H](CO)C(=O)N[C@@H](CO)C(=O)NCC(=O)N[C@@H](C)C(=O)N1CCC[C@H]1C(=O)N1CCC[C@H]1C(=O)N1CCC[C@H]1C(=O)N[C@@H](CO)C(=O)N[C@@H](CCCCN)C(N)=O)C(C)C [Example 3] (H-Y[Aib]EGT[αMeF]TSDYAI[Aib]LDKQAQSEFVKWLLKGGPSSGAPPPSK-NH2),46.49
